Measurements as given in patent publication US10144715B2, “Piperazine derivatives as liver X receptor modulators” (priority 2014, dated 2018).
Like-named read-outs stand apart in the source and are kept apart here.

How the values were obtained:
LXR α LBD protein [1] = target: T1, LXR α LBD protein (Homo sapiens (Human), UniProt Q13133); experiment: Human LXRα coactivator recruitment FRET assay, agonist mode; type: biochemical; conditions: agonist mode
Procedure, shortened: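 Time-resolved FRET (delay 100 µs, window 200 µs) after 2 h rt incubation of compound with 10 nM (2×) GST-tagged LXRα or LXRβ LBD plus 200 nM fluorescein-SRC2-3 and 20 nM Tb-anti-GST (4×). Percent control vs concentration fit to four-parameter model; EC50 at inflection.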

[2] = target: T2, Gal4 DNA binding domain fused to the LBD of LXRβ in HEK293 cells (Homo sapiens (Human), UniProt P55055); experiment: cell-based
T2 sequence (P55055 222-460 limits assumed): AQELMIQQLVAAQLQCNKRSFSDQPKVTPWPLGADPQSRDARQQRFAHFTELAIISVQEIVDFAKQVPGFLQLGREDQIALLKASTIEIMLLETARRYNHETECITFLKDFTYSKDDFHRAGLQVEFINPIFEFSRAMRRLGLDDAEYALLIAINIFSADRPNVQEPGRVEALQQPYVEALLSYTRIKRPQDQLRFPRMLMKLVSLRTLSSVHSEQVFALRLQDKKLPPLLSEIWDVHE

[3] = target: T3, Gal4 DNA binding domain fused to the LBD of LXRα in HEK293 cells (Homo sapiens (Human), UniProt Q13133); experiment: LXR luciferase transcriptional reporter gene assay, antagonist mode (200 nM T0901317), LXRα; type: cell-based
T3 sequence (Q13133 209-447): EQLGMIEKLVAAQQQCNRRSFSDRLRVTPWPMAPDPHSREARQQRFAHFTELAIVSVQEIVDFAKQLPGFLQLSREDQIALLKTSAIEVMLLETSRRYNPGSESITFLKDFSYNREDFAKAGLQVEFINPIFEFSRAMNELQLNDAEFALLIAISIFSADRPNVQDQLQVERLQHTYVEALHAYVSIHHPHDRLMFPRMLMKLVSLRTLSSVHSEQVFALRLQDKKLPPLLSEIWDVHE

[4] = target: T2, Gal4 DNA binding domain fused to the LBD of LXRβ in HEK293 cells; experiment: cell-based; type: cell-based
LXR β LBD protein [5] = target: T4, LXR β LBD protein (Homo sapiens (Human), UniProt P55055); experiment: biochemical; type: biochemical; conditions: agonist mode; for EC50: read-out: FRET LXRβ EC50
Target sequence in this assay (P55055 222-460): as the sequence (P55055 222-460 limits assumed) above

[6] = target: T3, Gal4 DNA binding domain fused to the LBD of LXRα in HEK293 cells; experiment: LXR luciferase transcriptional reporter gene assay, agonist mode, LXRα; type: cell-based
LXR α LBD protein [7] = target: T1, LXR α LBD protein; experiment: LXR α radioligand binding assay (SPA, competition with [3H]TO901317); conditions: read-out: LXRα Binding Ki
LXR β LBD protein [8] = target: T4, LXR β LBD protein; experiment: biochemical; type: binding; conditions: read-out: LXRβ Binding Ki
Target sequence in this assay (P55055 222-460 limits assumed): as above

[9] = agonist mode, read-out: Cell LXRβ EC50
[10] = antagonist mode, 200 nM T0901317, HEK293 reporter gene assay
[11] = antagonist mode, 200 nM T0901317, HEK293 reporter gene assay, read-out: Cell LXRβ IC50
[12] = antagonist mode, 200 nM T0901317, HEK293 reporter gene assay, read-out: Cell LXRα IC50
[13] = agonist mode, read-out: Cell LXRα EC50

T1 sequence (Q13133 209-447): as the sequence (Q13133 209-447) above

Row | Molecule | EC50 (LXR α LBD protein [1]) | FRET LXRα efficacy (LXR α LBD protein [1]) | Cell LXRβ efficacy ([2]; agonist mode) | IC50 ([3]; read-out: Cell LXRα IC50) | Cell LXRβ efficacy [4, 10] | IC50 [4, 11] | Cell LXRα efficacy [6] | EC50 ([6]; read-out: Cell LXRα EC50) | Cell LXRα efficacy [3] | EC50 [2] | Ki (LXR α LBD protein [7]) | Ki (LXR β LBD protein [8]) | IC50 [4] | also measured
1 | CC(C)[C@H]1CC[C@H](CN2CCN(c3cccc(S(C)(=O)=O)c3)C[C@@H]2c2ccccc2)CC1 (single isomer, unassigned) [48-15] | 2310 nM | 40% | 21% | > 10000 nM | 60% | 455 nM | 1658 (31) % | 1660 nM | – | – | – | – | – | EC50 [2, 9]: 564 nM; FRET LXRβ efficacy (LXR β LBD protein [5]): 32%; EC50 (LXR β LBD protein [5]): 197 nM
2 | CS(=O)(=O)c1cccc(N2CCN(C[C@H]3CC[C@H](C(F)(F)F)CC3)[C@@H](c3ccccc3)C2)c1 (single isomer, unassigned) [48-33] | 4870 nM | 74% | 32% | 5220 nM | 52% | 583 nM | 1245 (49) % | 1240 nM | 5224 (46) % | – | – | – | – | EC50 [2, 9]: 466 nM; FRET LXRβ efficacy (LXR β LBD protein [5]): 82%; EC50 (LXR β LBD protein [5]): 375 nM
3 | NS(=O)(=O)c1cccc(N2CCN(C[C@H]3CC[C@@H](C(F)(F)F)CC3)[C@@H](c3ccccc3)C2)c1 (single isomer, unassigned) [48-35] | 416 nM | 52% | 27% | 7570 nM | 38% | 317 nM | 351 (62) % | 351 nM | 7574 (100) % | – | – | – | – | EC50 [2, 9]: 120 nM; FRET LXRβ efficacy (LXR β LBD protein [5]): 22%; EC50 (LXR β LBD protein [5]): 46 nM
4 | Cc1nc(N2CCN(c3ccc(F)c(S(C)(=O)=O)c3)C[C@H]2C(C)C)ncc1Cl [7-12, (R)-5-chloro-2-(4-(4-fluoro-3-(methylsulfonyl)phenyl)-2-isopropylpiperazin-1-yl)-4-methylpyrimidine] | 677 nM | 86% | 177 (58) % | > 10000 nM | – | – | 997 (83) % | 997 nM | – | 177 nM | 105 nM | 9 nM | > 10000 nM | –
5 | CC(C)[C@@H]1CN(c2ccc(F)c(S(C)(=O)=O)c2)CCN1c1ccc(C(F)(F)F)cn1 [7-36, (R)-4-(4-fluoro-3-(methylsulfonyl)phenyl)-2-isopropyl-1-(5-(trifluoromethyl)pyridin-2-yl)piperazine] | 415 nM | 102% | – | > 10000 nM | – | – | 333 (106) % | 333 nM | – | 121 nM | 30 nM | 4 nM | > 10000 nM | Cell LXRβ efficacy [2]: 121 (93) %
6 | CC(C)[C@@H]1CN(c2ccc(F)c(S(C)(=O)=O)c2)CCN1c1ncc(C(=O)N(C)CCC(C)(C)O)c(C(F)(F)F)n1 [17-17, (R)-2-(4-(4-fluoro-3-(methylsulfonyl)phenyl)-2-isopropylpiperazin-1-yl)-N-(3-hydroxy-3-methylbutyl)-N-methyl-4-(trifluoromethyl)pyrimidine-5-carboxamide] | – | – | – | – | 684 (93) % | – | – | – | – | > 20000 nM | > 3330 nM | 618 nM | 684 nM | IC50 [3, 12]: 2610 nM; EC50 [6, 13]: > 20000 nM
7 | Cc1ccc(N2CCN(c3cccc(S(C)(=O)=O)c3)C[C@H]2C(C)C)nc1C1CC1 [40-2, (R)-1-(6-cyclopropyl-5-methylpyridin-2-yl)-2-isopropyl-4-(3-(methylsulfonyl)phenyl)piperazine] | – | – | – | 792 nM | – | – | 3505 (14) % | 3500 nM | 792 (80) % | > 20000 nM | 173 nM | 14 nM | 146 nM | Cell LXRβ efficacy [4]: 146 (93) %
8 | Cc1ccc(C2CC2)nc1N1CCN(c2cccc(S(C)(=O)=O)c2)C[C@H]1C(C)C [40-3, (R)-1-(6-cyclopropyl-3-methylpyridin-2-yl)-2-isopropyl-4-(3-(methylsulfonyl)phenyl)piperazine] | – | – | – | 2450 nM | 288 (88) % | – | – | > 20000 nM | 2454 (90) % | > 20000 nM | 724 nM | 61 nM | 288 nM | –
9 | CC(C)[C@@H]1CN(c2cccc(S(C)(=O)=O)c2)CCN1c1nccc(OC(F)F)n1 [44-2, (R)-4-(difluoromethoxy)-2-(2-isopropyl-4-(3-(methylsulfonyl)phenyl)piperazin-1-yl)pyrimidine] | – | – | – | – | – | – | 2594 (24) % | – | – | 205 nM | 520 nM | 35 nM | 177 nM | Cell LXRβ efficacy [2]: 205 (10) %; IC50 [3]: 1470 nM; Cell LXRα efficacy [3, 10]: 105%; Cell LXRβ efficacy [4]: 177 (103) %; EC50 [6]: 2590 nM
10 | CS(=O)(=O)c1cccc(N2CCN(C[C@H]3C[C@@H]4[C@H](C3)C4(F)F)[C@@H](c3ccccc3)C2)c1 [48-64, (S)-1-(((1R,3r,5S)-6,6-difluorobicyclo[3.1.0]hexan-3-yl)methyl)-4-(3-(methylsulfonyl)phenyl)-2-phenylpiperazine] | – | – | – | 4270 nM | 85% | 288 nM | 1817 (38) % | 1820 nM | 4272 (104) % | – | 397 nM | – | – | Cell LXRβ efficacy ([2]; Biological Test Example 2, agonist mode): 11%; EC50 ([2]; Biological Test Example 2, agonist mode, read-out: Cell LXRβ EC50): 411 nM; Ki (LXR β LBD protein [8]; Biological Test Example 1): 38 nM
11 | CC(C)[C@@H]1CN(c2cc(F)c(CO)c(S(C)(=O)=O)c2)CCN1c1ncc(CO)c(C(F)(F)F)n1 [Cpd No 11-6, (R)-(2-fluoro-4-(4-(5-(hydroxymethyl)-4-(trifluoromethyl)pyrimidin-2-yl)-3-isopropylpiperazin-1-yl)-6-(methylsulfonyl)phenyl)methanol] | – | – | 16 (46) % | – | 1355 (65) % | – | 216 (58) % | – | – | 16 nM | 71 nM | 2 nM | 1360 nM | IC50 [3, 12]: 3860 nM; EC50 [6, 13]: 216 nM
12 | CC(C)[C@@H]1CN(c2ccc(F)c(S(C)(=O)=O)c2)CCN1c1ncc(C(N)=O)c(C(F)(F)F)n1 [Cpd No 17-2, (R)-2-(4-(4-fluoro-3-(methylsulfonyl)phenyl)-2-isopropylpiperazin-1-yl)-4-(trifluoromethyl)pyrimidine-5-carboxamide] | – | – | – | – | – | – | 1789 (17) % | – | 3715 (97) % | 91 nM | 876 nM | 58 nM | 439 nM | Cell LXRβ efficacy [2]: 91 (10) %; IC50 [3, 12]: 3720 nM; Cell LXRβ efficacy [4]: 439 (97) %; EC50 [6, 13]: 1790 nM
13 | CC(C)[C@@H]1CN(c2ccc(F)c(S(C)(=O)=O)c2Cl)CCN1c1ncc(Cl)c(C2CC2)n1 [Cpd No 22-2, (R)-5-chloro-2-(4-(2-chloro-4-fluoro-3-(methylsulfonyl)phenyl)-2-isopropylpiperazin-1-yl)-4-cyclopropylpyrimidine] | 271 nM | 12% | – | 3610 nM | – | – | 1227 (7) % | 1230 nM | 3610 (83) % | 750 nM | – | 172 nM | 2140 nM | Cell LXRβ efficacy [2]: 750 (10) %; Cell LXRβ efficacy [4]: 2144 (96) %
14 | CC(C)[C@@H]1CN(c2ccc(F)c(S(C)(=O)=O)c2)CCN1c1ncc(Cc2ccc(C(C)(C)O)cc2)c(C(F)(F)F)n1 [Cpd No 31-1, (R)-2-(4-((2-(4-(4-fluoro-3-(methylsulfonyl)phenyl)-2-isopropylpiperazin-1-yl)-4-(trifluoromethyl)pyrimidin-5-yl)methyl)phenyl)propan-2-ol] | – | – | – | 443 nM | 115 (124) % | – | 2718 (7) % | 2720 nM | 443 (98) % | > 20000 nM | 159 nM | 18 nM | 115 nM | –
15 | benzyl (R)-2-isobutyl-4-(3-(methylsulfonyl)phenyl)piperazine-1-carboxylate [1-13] | 586 nM | 37% | 7% | 4100 nM | 132% | 756 nM | 2139 (16) % | 2140 nM | 4105 (131) % | – | – | – | – | EC50 [2, 9]: 265 nM; FRET LXRβ efficacy (LXR β LBD protein [5]): 52%; EC50 (LXR β LBD protein [5]): 36 nM
